Test results published in patent US12559529B2, “NPY2 receptor agonists” (Boehringer Ingelheim International GmbH, priority 2019, dated 2026).
*1 amine or outer side, *2 acyl side, *3 side chain or, on linkers, in order; H or OH if unused. Where a SMILES comes first, the peptide text is derived from it. Side-chain parts run from the residue outwards. The star is where a group is joined. C18 diacid = O=C(O)CCCCCCCCCCCCCCCCC(=O)*; γGlu = O=C(O)[C@H](CCC(=O)[*:2])N[*:1]; Isovaleryl = CC(C)CC(=O)*; AEEA = NCCOCCOCC(=O)O

Molecular target: T1, Human Neuropeptide Y2 Receptor (Homo sapiens, UniProt P49146)
T1 construct: purchased CHEMICON HTS066M
T1 sequence (P49146 1-381): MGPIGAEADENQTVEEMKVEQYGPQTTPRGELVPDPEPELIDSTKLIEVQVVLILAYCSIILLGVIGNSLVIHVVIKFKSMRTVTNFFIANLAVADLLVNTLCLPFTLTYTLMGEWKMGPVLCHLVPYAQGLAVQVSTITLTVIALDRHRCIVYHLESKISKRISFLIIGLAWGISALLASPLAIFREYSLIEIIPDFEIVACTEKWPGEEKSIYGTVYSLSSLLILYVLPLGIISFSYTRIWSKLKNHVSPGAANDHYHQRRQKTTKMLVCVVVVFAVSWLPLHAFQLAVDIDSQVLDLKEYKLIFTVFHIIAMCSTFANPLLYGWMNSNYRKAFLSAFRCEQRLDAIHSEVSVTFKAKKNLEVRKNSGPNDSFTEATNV
Experiment: Radioligand binding competition assay (RLB)
Details: Table 3; human 125I-PYY (1-36) 0.02 nM, Y2 receptor membranes; read-out: Ki
Summary of the method: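 Membranes (0.5 μg/well) and test peptides, serially diluted from 1 mM DMSO stocks, were incubated 2 hours at room temperature in HEPES buffer pH 7.4 with Mg, Ca and ovalbumin.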

Row | Compound | Ki [nM]
1 | CC(C)CC(=O)N[C@@H](C)C(=O)N1CCC[C@H]1C(=O)N[C@@H](C)C(=O)N[C@@H](CCCCNC(=O)COCCOCCNC(=O)COCCOCCNC(=O)CC[C@H](NC(=O)CCCCCCCCCCCCCCCCC(=O)O)C(=O)O)C(=O)N1CCC[C@H]1C(=O)N[C@@H](CCC(=O)O)C(=O)N[C@@H](C)C(=O)N[C@@H](CC(=O)O)C(=O)N[C@@H](C)C(=O)N[C@@H](CCC(=O)O)C(=O)N1CCC[C@H]1C(=O)N[C@@H](CCC(=O)O)C(=O)N[C@@H](CCC(=O)O)C(=O)N[C@@H](CC(C)C)C(=O)N[C@@H](CCC(N)=O)C(=O)N[C@@H](CCCNC(=N)N)C(=O)N[C@@H](Cc1ccc(O)cc1)C(=O)N[C@@H](Cc1ccc(O)cc1)C(=O)N[C@H](C(=O)N[C@@H](CO)C(=O)N[C@@H](CC(C)C)C(=O)N[C@@H](CCCNC(=N)N)C(=O)N[C@@H](Cc1c[nH]cn1)C(=O)N[C@@H](Cc1ccc(O)cc1)C(=O)N[C@@H](Cc1ccc(O)cc1)C(=O)N[C@@H](CC(N)=O)C(=O)N[C@@H](Cc1c[nH]c2ccccc12)C(=O)N[C@@H](CC(C)C)C(=O)N[C@H](C(=O)N[C@@H](CCCNC(=N)N)C(=O)N[C@@H](CCC(N)=O)C(=O)N[C@@H](CCCNC(=N)N)C(=O)N[C@@H](Cc1ccc(O)cc1)C(N)=O)[C@@H](C)O)C(C)C [Compound 207, N{alpha-4}-(3-methylbutanoyl)-N{epsilon-7}-[2-(2-{2-[2-(2-{2-[(4S)-4-carboxy-4-(17-carboxyheptadecanamido)butanamido]ethoxy}ethoxy)acetamido]ethoxy}ethoxy)acetamido]-[4A,6A,7K,9E,10A,13E,18Q,22V,28Y,30W,31L]hPYY (4-36)] | 1.07
2 | CC[C@H](C)[C@H](NC(=O)[C@H](CCCCNC(=O)COCCOCCNC(=O)COCCOCCNC(=O)CC[C@H](NC(=O)CCCCCCCCCCCCCCCCC(=O)O)C(=O)O)NC(=O)[C@H](CCC(=O)O)NC(=O)[C@@H]1CCCN1C(=O)[C@H](C)NC(=O)CC(C)C)C(=O)N[C@@H](CCC(=O)O)C(=O)N[C@@H](CCC(=O)O)C(=O)N[C@@H](CCC(=O)O)C(=O)N[C@@H](C)C(=O)N[C@@H](CO)C(=O)N1CCC[C@H]1C(=O)N[C@@H](CCC(=O)O)C(=O)N[C@@H](CCC(=O)O)C(=O)N[C@@H](CC(C)C)C(=O)N[C@@H](CCC(N)=O)C(=O)N[C@@H](CCCNC(=N)N)C(=O)N[C@@H](Cc1ccc(O)cc1)C(=O)N[C@@H](Cc1ccc(O)cc1)C(=O)N[C@H](C(=O)N[C@@H](CO)C(=O)N[C@@H](CC(C)C)C(=O)N[C@@H](CCCNC(=N)N)C(=O)N[C@@H](Cc1c[nH]cn1)C(=O)N[C@@H](Cc1ccc(O)cc1)C(=O)N[C@@H](Cc1ccc(O)cc1)C(=O)N[C@@H](CC(N)=O)C(=O)N[C@@H](Cc1c[nH]c2ccccc12)C(=O)N[C@@H](CC(C)C)C(=O)N[C@H](C(=O)N[C@@H](CCCNC(=N)N)C(=O)N[C@@H](CCC(N)=O)C(=O)N[C@@H](CCCNC(=N)N)C(=O)N[C@@H](Cc1ccc(O)cc1)C(N)=O)[C@@H](C)O)C(C)C [Compound 210, N{alpha-4}-(3-methylbutanoyl)-N{epsilon-7}-[2-(2-{2-[2-(2-{2-[(4S)-4-carboxy-4-(17-carboxyheptadecanamido)butanamido]ethoxy}ethoxy)acetamido]ethoxy}ethoxy)acetamido]-[4A,7K,8I,9E,11E,18Q,22V,28Y,30W,31L]hPYY (4-36)] (Isovaleryl-APEK([AEEA-AEEA-γGlu-C18 diacid])IEEEASPEELQRYYVSLRHYYNWLTRQRY-NH2) | 10.5
3 | CC(C)CC(=O)N[C@@H](C)C(=O)N1CCC[C@H]1C(=O)N[C@@H](CCC(=O)O)C(=O)N[C@@H](CCCCNC(=O)COCCOCCNC(=O)COCCOCCNC(=O)CC[C@H](NC(=O)CCCCCCCCCCCCCCCCC(=O)O)C(=O)O)C(=O)N1CCC[C@H]1C(=O)N[C@@H](CCC(=O)O)C(=O)N[C@@H](CCC(=O)O)C(=O)N[C@@H](CC(=O)O)C(=O)N[C@H](C(=O)N[C@@H](C)C(=O)N1CCC[C@H]1C(=O)N[C@@H](CCC(=O)O)C(=O)N[C@@H](CCC(=O)O)C(=O)N[C@@H](CC(C)C)C(=O)N[C@@H](CCC(N)=O)C(=O)N[C@@H](CCCNC(=N)N)C(=O)N[C@@H](Cc1ccc(O)cc1)C(=O)N[C@@H](Cc1ccc(O)cc1)C(=O)N[C@H](C(=O)N[C@@H](CO)C(=O)N[C@@H](CC(C)C)C(=O)N[C@@H](CCCNC(=N)N)C(=O)N[C@@H](Cc1c[nH]cn1)C(=O)N[C@@H](Cc1ccc(O)cc1)C(=O)N[C@@H](Cc1ccc(O)cc1)C(=O)N[C@@H](CC(N)=O)C(=O)N[C@@H](Cc1c[nH]c2ccccc12)C(=O)N[C@@H](CC(C)C)C(=O)N[C@H](C(=O)N[C@@H](CCCNC(=N)N)C(=O)N[C@@H](CCC(N)=O)C(=O)N[C@@H](CCCNC(=N)N)C(=O)N[C@@H](Cc1ccc(O)cc1)C(N)=O)[C@@H](C)O)C(C)C)[C@@H](C)O [Compound 212, N{alpha-4}-(3-methylbutanoyl)-N{epsilon-7}-[2-(2-{2-[2-(2-{2-[(4S)-4-carboxy-4-(17-carboxyheptadecanamido)butanamido]ethoxy}ethoxy)acetamido]ethoxy}ethoxy)acetamido]-[4A,7K,9E,12T,13A,18Q,22V,28Y,30W,31L]hPYY (4-36)] | 20.3
4 | CC(C)CC(=O)N[C@@H](C)C(=O)N1CCC[C@H]1C(=O)N[C@@H](CCC(=O)O)C(=O)N[C@@H](CCCCNC(=O)COCCOCCNC(=O)COCCOCCNC(=O)CC[C@H](NC(=O)CCCCCCCCCCCCCCCCC(=O)O)C(=O)O)C(=O)N1CCC[C@H]1C(=O)N[C@@H](CCC(=O)O)C(=O)N[C@@H](CCC(=O)O)C(=O)N[C@@H](CCC(=O)O)C(=O)N[C@H](C(=O)N[C@@H](CO)C(=O)N1CCC[C@H]1C(=O)N[C@@H](CCC(=O)O)C(=O)N[C@@H](CCC(=O)O)C(=O)N[C@@H](CC(C)C)C(=O)N[C@@H](CCC(N)=O)C(=O)N[C@@H](CCCNC(=N)N)C(=O)N[C@@H](Cc1ccc(O)cc1)C(=O)N[C@@H](Cc1ccc(O)cc1)C(=O)N[C@H](C(=O)N[C@@H](CO)C(=O)N[C@@H](CC(C)C)C(=O)N[C@@H](CCCNC(=N)N)C(=O)N[C@@H](Cc1c[nH]cn1)C(=O)N[C@@H](Cc1ccc(O)cc1)C(=O)N[C@@H](Cc1ccc(O)cc1)C(=O)N[C@@H](CC(N)=O)C(=O)N[C@@H](Cc1c[nH]c2ccccc12)C(=O)N[C@@H](CC(C)C)C(=O)N[C@H](C(=O)N[C@@H](CCCNC(=N)N)C(=O)N[C@@H](CCC(N)=O)C(=O)N[C@@H](CCCNC(=N)N)C(=O)N[C@@H](Cc1ccc(O)cc1)C(N)=O)[C@@H](C)O)C(C)C)[C@@H](C)O [Compound 213, N{alpha-4}-(3-methylbutanoyl)-N{epsilon-7}-[2-(2-{2-[2-(2-{2-[(4S)-4-carboxy-4-(17-carboxyheptadecanamido)butanamido]ethoxy}ethoxy)acetamido]ethoxy}ethoxy)acetamido]-[4A,7K,9E,11E,12T,18Q,22V,28Y,30W,31L]hPYY (4-36)] (Isovaleryl-APEK([AEEA-AEEA-γGlu-C18 diacid])PEEETSPEELQRYYVSLRHYYNWLTRQRY-NH2) | 6.54
